We go through two compounds from patent publication US20190227053A1, “BIO-ELECTRIC NOSE” (NEW YORK UNIVERSITY, priority 2016, published 2019).

For this assay, the system named is olfactory bulb glomeruli. Briefly: Odor detection by the bio-electronic nose (surface electrode array on the olfactory bulb). It is filed as in vivo, mouse. As to conditions: FIG. 10. The text has this:
In one embodiment utilizing an organism, such as a mouse, as the chemical detector, the mouse is anesthetized and a craniotomy will be made above one of the OBs. A grid electrode will be positioned on the surface of the bulb. The recording is optimized for different conditions: sub or epi-durally or through a thin layer of skull. Alternatively, a surface electrode can be implanted in conjunction with a probe (such as silicone) inserted to the bulb to obtain signals from higher processing levels, such as the mitral/tufted cells, to improve the filtration of early olfactory responses. Typically, the electrode is divided into several areas (1-4) of 8×8 electrode sites. […]
In one embodiment, a method of interpreting information from the at least one electrode relies on the development of reliable techniques for recording on the surface of the bulb and on algorithms for extracting odor information from these recordings. […] Theta waves, indicative of respiration, are used to verify inhalation in conjunction with readings from the pressure signal. […]
For […], at each session a mouse will be positioned in a head-fixed apparatus similar to that used for anesthetized recordings (FIG. 7). The sniffing/breathing pattern and signals continuously recorded from electrode array, and we will expose the mouse to multiple odor presentations (n˜500). […]

For `NCCc1ccccc1` [Phenylethylamine], where the note is “odorant presented to mouse with electrode array on olfactory bulb, read-out: minimum concentration (EC50) detected by the bio-electronic nose”, the EC50 is 0.01 nM.

With `CCCCC(=O)OC` [Methyl Valerate], where the note is “odorant detected by the bio-electronic nose”, the minimum detectable concentration is listed as 10^−12 M.
